ChEMBL document CHEMBL5608235, “Tricyclic Benzo[1,3]oxazinyloxazolidinones as Potent Antibacterial Agents against Drug-Resistant Pathogens” (J Med Chem, 2024)
Values after ≈ are worked out from the molar mass of the structure shown. Active and inactive are the calls of the source. The rule behind the calls is not given here.

How the values were obtained:
[1] = Metabolic stability in human liver microsomes assessed as substrate remaining at 10 uM incubated for 60 mins in presence of NADPH by LC-MS/MS analysis; assay type: ADME, Microsome; conditions: read-out: Stability
Staphylococcus aureus [2] = assay: (§1) Antibacterial activity against methicillin resistant Staphylococcus aureus ATCC 33592 infected in cyclophosphamide-induced immunosuppressed Kunming mouse assessed as reduction in inflammatory cell infiltration in liver at 50 mg/kg,po administration measured after 24 hrs by hematoxylin and eosin staining based microscopy; assay type: functional, organism-based
Bacillus subtilis = assay: Antibacterial activity against Bacillus subtilis ATCC6633 assessed as inhibition of bacterial growth incubated for 18 hrs by microdilution broth assay; assay type: functional
[3] = MRT (0 to t) in BALB/c mouse at 10 mg/kg,po administration measured upto 24 hrs by LC-MS/MS analysis; assay type: ADME, organism-based; conditions: in vivo
Cell membrane [4] = assay: Disruption of cell membrane in methicillin resistant Staphylococcus aureus ATCC 33592 assessed as cell shrinkage at 0.5 ug/ml incubated for 6 hrs by Scanning electron microscopic analysis; assay type: cell membranes; conditions: dose 0.5 µg/ml
Cell membrane [5] = assay: Disruption of cell membrane in methicillin resistant Staphylococcus aureus ATCC 33592 assessed as change in morphology at 0.5 ug/ml incubated for 30 mins by Scanning electron microscopic analysis; assay type: cell membranes; conditions: dose 0.5 µg/ml
Enterococcus faecalis = assay: Antibacterial activity against Linezolid resistant Enterococcus faecalis clinical isolate 20-2 assessed as inhibition of bacterial growth incubated for 7 days by alamar blue assay; assay type: functional; conditions: clinical isolate 20-2, 168 h, time 7 day
Staphylococcus aureus [6] = assay: Antibacterial activity against methicillin resistant Staphylococcus aureus ATCC 33592 infected in cyclophosphamide-induced immunosuppressed Kunming mouse by measuring survival rate of mouse at 50 mg/kg,po administration measured for 7 days; assay type: functional; conditions: ATCC 33592, 168 h, time 7 day
[7] = AUC (0 to infinity) in BALB/c mouse at 1 mg/kg,iv administration measured upto 24 hrs by LC-MS/MS analysis; assay type: ADME, organism-based; conditions: BALB/c, in vivo
[8] = AUC (0 to infinity) in BALB/c mouse at 10 mg/kg,po administration measured upto 24 hrs by LC-MS/MS analysis; assay type: ADME, organism-based; conditions: BALB/c, in vivo
Staphylococcus aureus [9] = assay: as §1, with “histopathological change” for “inflammatory cell infiltration”, “spleen” for “liver”, “10” for “50”; assay type: functional, organism-based
Staphylococcus aureus [10] = assay: as §1, with “pigment deposition” for “inflammatory cell infiltration”, “spleen” for “liver”, “10” for “50”; assay type: functional, organism-based
[11] = Cytotoxicity against African green monkey Vero cells incubated for 48 hrs by MTT assay; assay type: toxicity, cell-based, Chlorocebus sabaeus
Staphylococcus aureus [12] = assay: Antibacterial activity against daptomycin/methicillin resistant Staphylococcus aureus assessed as inhibition of bacterial growth incubated for 7 days by alamar blue assay; assay type: functional; conditions: 168 h, time 7 day
Cell membrane [13] = assay: Disruption of cell membrane integrity in Staphylococcus aureus ATCC 25923 assessed as increase in blue fluorescence at 0.5 ug/ml incubated for 1 hr by […] and propidium iodide double staining based confocal microscopic analysis; assay type: cell membranes; conditions: dose 0.5 µg/ml
[14] = Volume of distribution in BALB/c mouse at 1 mg/kg,iv administration measured upto 24 hrs by LC-MS/MS analysis; assay type: ADME, organism-based; conditions: in vivo
[15] = Cmax in BALB/c mouse at 10 mg/kg,po administration measured upto 24 hrs by LC-MS/MS analysis; assay type: ADME, organism-based; conditions: in vivo
[16] = Plasma protein binding in BALB/c mouse at 1 mg/kg,iv administration measured upto 24 hrs by LC-MS/MS analysis; assay type: ADME, organism-based; conditions: read-out: PPB (converted)
Staphylococcus aureus [17] = assay: Bacteriostatic activity against methicillin resistant Staphylococcus aureus ATCC 33592 at 1 times MIC incubated for 2 to 24 hrs by time-kill assay; assay type: functional, organism-based; conditions: time 2-24 hrs
Staphylococcus aureus [18] = assay: Antibacterial activity against methicillin resistant Staphylococcus aureus ATCC 33592 infected in cyclophosphamide-induced immunosuppressed Kunming mouse assessed as increase in white blood cell at 25 to 50 mg/kg,po administration measured after 7 days by Giemsa staining based analysis; assay type: functional, organism-based; conditions: dose 25-50 mg/kg, time 7.0 day
Cell membrane [19] = assay: Disruption of cell membrane integrity in methicillin resistant Staphylococcus aureus ATCC 33592 assessed as increase in red fluorescence at 0.5 ug/ml incubated for 1 hr by […] and propidium iodide double staining based confocal microscopic analysis; assay type: cell membranes; conditions: dose 0.5 µg/ml
Staphylococcus aureus [20] = assay: Antibacterial activity against methicillin resistant Staphylococcus aureus ATCC 33592 infected in cyclophosphamide-induced immunosuppressed Kunming mouse assessed as increase in body weight at 10 to 50 mg/kg,po administration measured for 7 days; assay type: functional, organism-based; conditions: dose 10-50 mg/kg, time 7.0 day
Staphylococcus aureus [21] = assay: as §1, with “congestion” for “inflammatory cell infiltration”, “spleen” for “liver”; assay type: functional, organism-based
Staphylococcus aureus [22] = assay: Antibacterial activity against Staphylococcus aureus ATCC25923 assessed as inhibition of bacterial growth incubated for 18 hrs by microdilution broth assay; assay type: functional
Cell membrane [23] = assay: Disruption of cell membrane in methicillin resistant Staphylococcus aureus ATCC 33592 assessed as cell surface perforation at 0.5 ug/ml incubated for 6 hrs by Scanning electron microscopic analysis; assay type: cell membranes; conditions: dose 0.5 µg/ml
[24] = Terminal half life in BALB/c mouse at 1 mg/kg,iv administration measured upto 24 hrs by LC-MS/MS analysis; assay type: ADME, organism-based; conditions: in vivo, read-out: beta t1/2 (converted)
Staphylococcus aureus [25] = assay: as §1, with “appearance of inflated alveoli” for “reduction”, “lung” for “inflammatory cell infiltration in liver”; assay type: functional, organism-based
Staphylococcus aureus [26] = assay: Antibacterial activity against methicillin resistant Staphylococcus aureus ATCC 33592 infected in cyclophosphamide-induced immunosuppressed Kunming mouse assessed as reduction in bacterial load in lung at 10 to 50 mg/kg,po administration measured after 24 hrs by hematoxylin and eosin staining based microscopy; assay type: functional, organism-based; conditions: dose 10-50 mg/kg
Staphylococcus aureus [27] = assay: as §1, with “histopathological change” for “inflammatory cell infiltration”, “spleen” for “liver”; assay type: functional, organism-based
Cell membrane [28] = assay: Disruption of cell membrane in methicillin resistant Staphylococcus aureus ATCC 33592 assessed as damage in bacterial cell envelope at 0.5 ug/ml incubated for 30 mins by Scanning electron microscopic analysis; assay type: cell membranes; conditions: dose 0.5 µg/ml
[29] = tested on: Staphylococcus epidermidis; assay: Antibacterial activity against methicillin resistant Staphylococcus epidermidis clinical isolate 20-1 assessed as inhibition of bacterial growth incubated for 7 days by alamar blue assay; assay type: functional; conditions: clinical isolate 20-1, 168 h, time 7 day
Cell membrane [30] = assay: Disruption of cell membrane integrity in Staphylococcus aureus ATCC 25923 assessed as increase in red fluorescence at 0.5 ug/ml incubated for 1 hr by […] and propidium iodide double staining based confocal microscopic analysis; assay type: cell membranes; conditions: dose 0.5 µg/ml
Staphylococcus aureus [31] = assay: Antibacterial activity against methicillin resistant Staphylococcus aureus ATCC 33592 infected in cyclophosphamide-induced immunosuppressed Kunming mouse by measuring survival rate of mouse at 25 mg/kg,po administration measured for 7 days; assay type: functional; conditions: ATCC 33592, 168 h, time 7 day
Staphylococcus aureus [32] = assay: Antibacterial activity against methicillin resistant Staphylococcus aureus ATCC 33592 infected in cyclophosphamide-induced immunosuppressed Kunming mouse assessed as increase in lymphocytes at 25 to 50 mg/kg,po administration measured after 7 days by Giemsa staining based analysis; assay type: functional, organism-based; conditions: dose 25-50 mg/kg, time 7.0 day
Staphylococcus aureus [33] = assay: Antibacterial activity against methicillin resistant Staphylococcus aureus ATCC 33592 infected in cyclophosphamide-induced immunosuppressed Kunming mouse assessed as decrease in TNF-alpha level at po administration measured after 24 hrs by ELISA; assay type: functional, organism-based

With `CC(=O)NC[C@@H]1OC(=O)N2Cc3cc(-c4ccc(C#N)cc4)c(F)cc3O[C@@H]12` the remaining at 1 h, 10 µM [1] was 116%, the Activity (Staphylococcus aureus [2]) was “Active” and the MIC (Bacillus subtilis) was 0.032 µg/mL (≈ 0.0839 µM). The MRT last at 24 h [3] was 9.3 h, the Activity (Cell membrane [4]) was “Active” and the Activity (Cell membrane [5]) was “Active”. For the same compound, the MIC (Enterococcus faecalis) was 1 µg/mL (≈ 2.62 µM), the survival at 50 mg/kg (Staphylococcus aureus [6]) was 100% and the AUC(0-inf) [7] was 5130 ng·h/mL. The AUC(0-inf) [8] was 83500 ng·h/mL, the Activity (Staphylococcus aureus [9]) was “Active” and the Activity (Staphylococcus aureus [10]) was “Active”. The IC50 at 48 h [11] was 35 µg/mL (≈ 91.8 µM), the MIC (Staphylococcus aureus [12]) was 1 µg/mL (≈ 2.62 µM) and the Activity (Cell membrane [13]) was “Active”. It also gave a Vd [14] of 1.94 L/kg, a Cmax [15] of 4510 ng/mL and a fraction unbound at 24 h [16] of 0.239. The Activity (Staphylococcus aureus [17]) was “Active”, the Activity (Staphylococcus aureus [18]) was “Active” and the Activity (Cell membrane [19]) was “Active”. The Activity (Staphylococcus aureus [20]) was “Active”, the Activity (Staphylococcus aureus [21]) was “Active” and the MIC (Staphylococcus aureus [22]) was 0.5 µg/mL (≈ 1.31 µM). The Activity (Cell membrane [23]) was “Active”, the half-life [24] was 7.9 h and the Activity (Staphylococcus aureus [25]) was “Active”. The Activity (Staphylococcus aureus [26]) was “Active”, the Activity (Staphylococcus aureus [27]) was “Active” and the Activity (Cell membrane [28]) was “Active”. For the same compound, the MIC [29] was 0.06 µg/mL (≈ 0.157 µM), the Activity (Cell membrane [30]) was “Active” and the survival at 25 mg/kg (Staphylococcus aureus [31]) was 100%. For the same compound, the Activity (Staphylococcus aureus [32]) was “Active” and the Activity (Staphylococcus aureus [33]) was “Dose-Dependent Effect”.
